Columns and labels:
[1] = tested on: MCF-7/6 mammary carcinoma cell line; assay: in vivo survival study after intracardial injection of MCF-7/6 cells; design: species or system Swiss nu/nu mice; settings: for # at risk / # deaths / psurv: 10 nmol i.p. thrice a week; for pcum: cumulative probability of survival
Description: In order to evaluate the in vivo potency of 4-fluoro-3′,4′,5′-trimethoxychalcone 49 against the MCF-7/6 mammary carcinoma cell line, a broadly used metastasis experiment involving intracardial injection of the cancer cells was conducted. One week after subcutaneous implantation of an estrogen pellet (1 mg) in the dorsal region of the neck, […] Swiss nu/nu mice were injected in the left cardiac ventricle with 1.10^5 MCF-7/6 cells under xylazine and ketamine anesthesia (Smith W., 1993).
By virtue of injection into the left cardiac ventricle, cancer cells directly enter systemic arterial circulation, which enhances the chance for colonization (Arguello et al., 1988). […] However, since these metastases are difficultly detectable and quantifiable, survival time was chosen as the sole end point in this study.
Upon inoculation, mice were divided randomly into two equal groups. One cohort was intraperitoneally injected with 10 nmol of 49 thrice a week (160 μg·kg^−1 for a 20 g animal), while the other group only received the vehicle (100 μL of serum-free DMEM containing 1:1000 DMSO).
Twenty 6-week old female Swiss nu/nu mice were given a subcutaneous estrogen implant (1 mg) in the dorsal region of the neck. One week later, intracardial injection of 100,000 MCF-7/6 cells in […] of PBS^D^+ was performed. Animals were anesthesized priorly by i.p. injection of xylazine (5 μL, Rompun®) and ketamine (36 μL, Ketalar®). Intracardial injection was performed with a 30 G needle (½″), which was introduced into the thoracic cavity underneath the sternum. Upon protrusion of the wall of the left ventricle, blood is pumped into the syringe. At this moment, careful injection of the cancer cells can be conducted. Next, mice were randomly divided into a vehicle control and a 49-treated cohort.
From the inoculation date on, mice were treated i.p. three times a week with 100 μL of a 100 μmol·L^−1 solution of 49 in serum-free DMEM containing 1:1000 DMSO, or with vehicle alone (see “preparation procedure”). Survival numbers for both cages were recorded on a daily basis.
“Preparation procedure”: for the 49-treated group, 100 mmol·L^−1 solutions of 49 in DMSO were freshly prepared on each injection day, and diluted 1:1000 with serum-free DMEM so as to obtain injectable solutions of 100 μmol·L^−1 of 49. Control mice were given i.p. injections with 100 μL of the vehicle (1:1000 DMSO in serum-free DMEM).

FaDu cells = assay: MTT test, FaDu; assay type: cell-based, human
Description: (§1) An MTT test provides an indication of cell viability, proliferation and activity through determination of the mitochondrial conversion of 3-(4,5-dimethylthiazol-2-yl)-2,5-diphenyltetrazolium bromide (MTT), a yellow salt, into formazan, a salt that precipitates under the form of blue crystals.
(§2) In concreto, 5,000 cells are seeded in a cup of a 96 well-plate, treated with the desired amount of the test substance, and incubated for a chosen period of time. Next, 40 μL of a filtered (0.2 μm) 5 mg·mL^−1 solution of MTT in PBS is added to the cup. After 2 h of incubation at 37° C. in the dark, all liquid is removed. The obtained formazan salts are dissolved in 200 μL of DMSO, whereupon optical density is measured at 490 nm.
(§3) In order to verify whether the antiproliferative effects of compound 49, witnessed in BLM and MCF-7/6 cells at high concentrations, were cell specific, additional SRB and MTT assays on a further five cell lines (HCT8-E11, TR146, FaDu, 3T3-L1 and CT5.3) were conducted (FIG. 8). The results for MCF-7/6 cells were added to facilitate comparison.
(§4) The CT5.3 cell line consists of human myofibroblasts which were isolated from a colon tumor (Van Hoorde et al., 1999). 3T3-L1 cells are murine fibroblasts, originating from embryo's of Swiss mice (Todaro and Green, 1963). HCT8-E11, FaDu and TR146 are human epithelial cancer cell lines. […]

TR146 cells = assay: MTT test, TR146; assay type: cell-based, human
Description: as §1, §2, §3, §4

BLM melanoma cells = assay: MTT test, BLM; assay type: cell-based
Description: as §1, §2
As 4-fluoro-3′,4′,5′-trimethoxychalcone had exerted an anti-invasive activity on BLM melanoma cells in the Matrigel invasion assay, we were intrigued to verify how its effect on the viability of BLM cells would compare to that observed for the MCF-7 cell lines.

[2] = tested on: HCT8-E11 colon carcinoma cells; assay: SRB test, HCT8-E11; assay type: cell-based, human
Description: (§5) The SRB assay is used to evaluate growth effects on cells, and measures the total protein content. In this test, 5,000 cells are seeded in a cup of a 96-well plate. Upon a 24 h-attachment period, cells are treated with a certain amount of the test molecule (dissolved in DMSO). After a pre-chosen incubation time, cells are fixed with 50 μL of 50% trichloroacetic acid (2° C., 1 h). Afterward, the plate is rinsed five times with tap water, and air dried overnight.
(§6) Next, proteins are stained with 75 μL of a 0.4% solution of SRB in AcOH (30 min). Unbound SRB is subsequently removed by washing with a 1% solution of glacial AcOH, whereupon the plate is air dried. Then, bound SRB is redissolved in 100 μL of a 10 mmol·L^−1 tris(hydroxymethyl)aminomethane (Tris) buffer (pH=10.5), after which optical density is determined at 490 nm with a spectrophotometer.
as §3
(§7) The CT5.3 cell line consists of human myofibroblasts which were isolated from a colon tumor (Van Hoorde et al., 1999). […]

3T3-L1 cells = assay: SRB test, 3T3-L1; assay type: cell-based, murine; settings: 10 μmol·L−1, 24 h, decreasing trend, not significant
Description: as §5, §6, §3, §7

Compound: COc1cc(C(=O)/C=C/c2ccc(F)cc2)cc(OC)c1OC [Compound 49, (2E)-3-(4-Fluorophenyl)-1-(3,4,5-trimethoxyphenyl)propenone]
- # at risk ([1]; Day 5): 10
- # deaths ([1]; Day 5): 1
- psurv ([1]; Day 5): 0.9
- pcum ([1]; Day 5): 0.9
- # at risk ([1]; Day 40): 9
- # deaths ([1]; Day 40): 1
- psurv ([1]; Day 40): 0.89
- pcum ([1]; Day 40): 0.8
- # at risk ([1]; Day 61): 8
- psurv ([1]; Day 61): 1
- pcum ([1]; Day 61): 0.8
- mitochondrial activity (FaDu cells; 1 μmol·L−1, 24 h): the same trend, but without significance
- reduction in mitochondrial activity (FaDu cells; 10 μmol·L−1, 24 h): 30%
- increase in mitochondrial activity (TR146 cells; 1 μmol·L−1, 24 h): 7%
- reduction in mitochondrial activity (TR146 cells; 10 μmol·L−1, 24 h): 30%
- reduction of BLM cell viability (mitochondrial activity) (BLM melanoma cells; 0.1 μmol·L−1, 24 h): 22%
- reduction of BLM cell viability (mitochondrial activity) (BLM melanoma cells; 1 μmol·L−1, 24 h): 27%
- reduction in mitochondrial activity (BLM melanoma cells; 10 μmol·L−1, 24 h): 40%
- reduction of BLM cell viability (mitochondrial activity) (BLM melanoma cells; 100 μmol·L−1, 24 h): 76%
- change in total protein content ([2]; 10 μmol·L−1, 24 h, decreasing trend, not significant): −27%
- reduction in total protein content ([2]; elevated concentrations 10-100 μmol·L−1, summary): ~50%
- change in total protein content (3T3-L1 cells): −20%

Reference: patent US9290427B2, “Anti-invasive compounds” (Universiteit Gent, priority 2012, dated 2016)
